Test results taken from patent US20250228832A1, “METHODS FOR TREATING DISORDERS AMELIORATED BY MUSCARINIC RECEPTOR ACTIVATION” (KARUNA THERAPEUTICS, INC., priority 2022, published 2025).
Read-outs that look alike come from different tables or passages of the source. Values belong to the molecule of their own block, whether it stands above or below them.

Assays:
[1] = target: T1, human M3 receptor (Homo sapiens, UniProt P20309); assay: HTRF IP-One curve shift assay, M3; assay type: cell-based
T1 construct: expressed in transfected cells
Experimental: (§1) HTRF IP-One assays were performed using frozen cell aliquots prepared from CHO-K1 cell lines stably expressing human M1, M3, or M5 receptors. Cells were frozen following typical cell freezing protocols. […] Dissociated cells were quenched in full media and collected by centrifugation at 290×g for 5 min. […] 1 mL aliquots of cells were dispensed into cryovial tubes and frozen in a controlled rate cryo-freezer container at −80° C. Cells were stored at −80° C. (or in liquid nitrogen if stored for at least six months) until the day of the assay.
(§2) On the day before the assay, frozen cells were rapidly thawed in a 37° C. water bath, brought up in 20 mL of full media, and collected via centrifugation at 290×g for 5 min. […] Next, […] of cells (10,000 cells/well) were dispensed into 384-well coming plates in triplicate. Cells were incubated overnight in a 37° C., 5% CO2 cell incubator.
(§3) Then, 2 μL of test compounds were added to the cells and incubated for 10 min at 37° C. in a 5% CO2 cell incubator. Next, 2 μL of diluted agonists serially diluted in assay buffer at 7× final assay concentration was added to assay plates. Finally, assay plates were incubated for two hours at 37° C. in a 5% CO2 cell incubator.
(§4) Six μL of IP-1 detection reagents (IP-One Gq HTRF kit, Cisbio Cat #62IPAPEJ) were dispensed to the cells. First, the plates were incubated for two hours at room temperature (IP-One detection reagents were made according to Cisbio protocol). Then, plates were read on an Envision plate reader following the Cisbio guidelines.
(§5) Raw data for all assays was transmitted directly from plate readers into the Beacon database for processing. All assay plates contained positive and negative control wells for data normalization and scaling. […] All control wells contained DMSO at a final assay concentration that matched the test compound wells.
(§6) Counts from the standard curve wells were used to generate a sigmoidal standard curve, which was used to transform the raw counts from each well on the plate (scaling control wells and compound wells) into a pmol/well IP1 value.

[2] = target: T2, human M5 receptor (Homo sapiens, UniProt P08912); assay: HTRF IP-One curve shift assay, M5; assay type: cell-based; conditions: M5
T2 construct: expressed in transfected cells
T2 sequence (P08912 1-532): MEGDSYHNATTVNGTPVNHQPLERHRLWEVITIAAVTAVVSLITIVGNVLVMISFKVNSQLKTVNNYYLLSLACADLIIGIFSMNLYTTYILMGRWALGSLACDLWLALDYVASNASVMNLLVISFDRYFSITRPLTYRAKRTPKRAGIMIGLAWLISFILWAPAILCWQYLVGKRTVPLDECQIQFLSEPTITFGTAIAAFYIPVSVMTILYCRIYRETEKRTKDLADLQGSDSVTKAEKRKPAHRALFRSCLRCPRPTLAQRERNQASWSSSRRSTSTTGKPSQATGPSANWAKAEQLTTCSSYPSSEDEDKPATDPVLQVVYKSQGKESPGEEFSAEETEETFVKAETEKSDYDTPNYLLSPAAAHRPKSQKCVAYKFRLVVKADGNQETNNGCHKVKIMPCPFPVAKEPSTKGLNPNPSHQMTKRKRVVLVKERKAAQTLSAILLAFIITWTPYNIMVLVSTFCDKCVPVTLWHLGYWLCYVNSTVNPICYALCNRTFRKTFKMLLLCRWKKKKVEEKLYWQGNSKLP
Experimental: as §1, §2, §3, §4, §5, §6

[3] = Emraclidine concentration 41.2 nM, read-out: Emax
[4] = Emraclidine concentration 123 nM, read-out: Emax
[5] = Emraclidine concentration 370 nM
[6] = Emraclidine concentration 1110 nM, read-out: Emax
[7] = Emraclidine concentration 3330 nM, read-out: Emax
[8] = MK-4710 concentration 41.2 nM, read-out: Emax
[9] = MK-4710 concentration 123 nM, read-out: Emax
[10] = MK-4710 concentration 1110 nM, read-out: Emax
[11] = MK-4710 concentration 3330 nM, read-out: Emax
[12] = Emraclidine concentration 370 nM, read-out: Emax
[13] = Emraclidine concentration […], read-out: Emax
[14] = MK-4710 concentration 370 nM, read-out: Emax
[15] = MK-4710 concentration […], read-out: Emax

T1 sequence (P20309 whole entry): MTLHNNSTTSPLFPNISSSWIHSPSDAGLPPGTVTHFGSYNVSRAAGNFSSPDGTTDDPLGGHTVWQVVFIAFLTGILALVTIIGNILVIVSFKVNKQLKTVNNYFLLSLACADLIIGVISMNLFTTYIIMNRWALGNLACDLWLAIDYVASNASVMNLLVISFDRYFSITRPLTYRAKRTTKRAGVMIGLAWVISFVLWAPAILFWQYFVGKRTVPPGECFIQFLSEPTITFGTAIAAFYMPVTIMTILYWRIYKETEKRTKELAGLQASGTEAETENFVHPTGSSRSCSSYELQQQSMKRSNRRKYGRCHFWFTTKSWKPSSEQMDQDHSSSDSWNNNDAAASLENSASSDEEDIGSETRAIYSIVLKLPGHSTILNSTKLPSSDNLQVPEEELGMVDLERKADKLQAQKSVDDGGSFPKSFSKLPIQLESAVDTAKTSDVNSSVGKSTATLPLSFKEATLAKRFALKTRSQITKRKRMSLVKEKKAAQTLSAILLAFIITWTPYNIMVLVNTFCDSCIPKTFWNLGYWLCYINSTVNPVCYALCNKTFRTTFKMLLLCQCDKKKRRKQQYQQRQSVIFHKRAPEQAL

EC50 ([1]; Emraclidine concentration 0 nM): 3.27 µM | Emax ([1]; Emraclidine concentration 0 nM): 97.9% | Emax [1, 3]: 96.7% | Emax [1, 4]: 83.8% | Emax at […] [1, 5]: 87.8% | Emax [1, 6]: 125% | Emax [1, 7]: 83.9% | Emax at […] ([1]; Emraclidine concentration […]): 77.3% | α (cooperativity, affinity shift) ([1]; M4 PAM Emraclidine): 1.0 | β (cooperativity, efficacy shift) ([1]; M4 PAM Emraclidine): 1.1 | τ (agonist pharmacology) ([1]; M4 PAM Emraclidine): 0.1 | α (cooperativity, affinity shift) ([1]; M4 PAM MK-4710): 2.1 | β (cooperativity, efficacy shift) ([1]; M4 PAM MK-4710): 0.6 | τ (agonist pharmacology) ([1]; M4 PAM MK-4710): 0.0 | EC50 ([1]; MK-4710 concentration 0 nM): 6.36 µM | Emax ([1]; MK-4710 concentration 0 nM): 118.7% | EC50 ([1]; MK-4710 concentration 41.2 nM): 7.6 µM | Emax [1, 8]: 151% | EC50 ([1]; MK-4710 concentration 123 nM): 4.88 µM | Emax [1, 9]: 137% | EC50 ([1]; MK-4710 concentration 370 nM): 9.67 µM | Emax at […] ([1]; MK-4710 concentration 370 nM): 163% | EC50 ([1]; MK-4710 concentration 1110 nM): 11.2 µM | Emax [1, 10]: 150% | EC50 ([1]; MK-4710 concentration 3330 nM): 4.11 µM | Emax [1, 11]: 93.1% | EC50 ([1]; MK-4710 concentration […]): 11.5 µM | Emax at […] ([1]; MK-4710 concentration […]): 159% | EC50 ([2]; Emraclidine concentration 0 nM): 1.37 µM | Emax ([2]; Emraclidine concentration 0 nM): 90.54% | Emax [2, 3]: 92.7% | Emax [2, 4]: 93.5% | Emax at […] [2, 12]: 105% | Emax [2, 6]: 103% | Emax [2, 7]: 106% | Emax at […] [2, 13]: 102% | α (cooperativity, affinity shift) ([2]; M4 PAM Emraclidine): 1.0 | β (cooperativity, efficacy shift) ([2]; M4 PAM Emraclidine): 0.5 | τ (agonist pharmacology) ([2]; M4 PAM Emraclidine): 0.1 | α (cooperativity, affinity shift) ([2]; M4 PAM MK-4710): 1.0 | β (cooperativity, efficacy shift) ([2]; M4 PAM MK-4710): 1.4 | τ (agonist pharmacology) ([2]; M4 PAM MK-4710): 0.1 | EC50 ([2]; MK-4710 concentration 0 nM): 3.72 µM | Emax ([2]; MK-4710 concentration 0 nM): 70.31% | Emax [2, 8]: 95.2% | Emax [2, 9]: 88.2% | Emax at […] [2, 14]: 91.1% | Emax [2, 10]: 78.3% | Emax [2, 11]: 91.2% | Emax at […] [2, 15]: 97.3%
Structure (SMILES): CC1OC2(CS1)CN1CCC2CC1 (stereo not shown) [cevimeline, Cevimeline, reference compound]

EC50 ([1]; Emraclidine concentration 0 nM): 0.0244 µM | Emax ([1]; Emraclidine concentration 0 nM): 42.7% | Emax [1, 3]: 45.3% | Emax [1, 4]: 50.2% | Emax at […] [1, 5]: 52.1% | Emax [1, 6]: 54.8% | Emax [1, 7]: 59.6% | Emax at […] ([1]; Emraclidine concentration […]): 43% | α (cooperativity, affinity shift) ([1]; M4 PAM Emraclidine): 1.0 | β (cooperativity, efficacy shift) ([1]; M4 PAM Emraclidine): 2.8 | τ (agonist pharmacology) ([1]; M4 PAM Emraclidine): 0.0 | α (cooperativity, affinity shift) ([1]; M4 PAM MK-4710): 7.7 | β (cooperativity, efficacy shift) ([1]; M4 PAM MK-4710): 1.1 | τ (agonist pharmacology) ([1]; M4 PAM MK-4710): 0.0 | EC50 ([1]; MK-4710 concentration 0 nM): 0.0338 µM | Emax ([1]; MK-4710 concentration 0 nM): 46.7% | Emax [1, 8]: 49.5% | Emax [1, 9]: 48.3% | Emax at […] ([1]; MK-4710 concentration 370 nM): 53.4% | Emax [1, 10]: 51.1% | Emax [1, 11]: 64.4% | Emax at […] ([1]; MK-4710 concentration […]): 45.6% | EC50 ([2]; Emraclidine concentration 0 nM): 0.121 µM | Emax ([2]; Emraclidine concentration 0 nM): 41.68% | EC50 ([2]; Emraclidine concentration 41.2 nM): 0.11 µM | Emax [2, 3]: 45.4% | EC50 ([2]; Emraclidine concentration 123 nM): 0.118 µM | Emax [2, 4]: 62.7% | EC50 [2, 5]: 0.161 µM | Emax at […] [2, 12]: 62.4% | EC50 ([2]; Emraclidine concentration 1110 nM): 0.243 µM | Emax [2, 6]: 69.3% | EC50 ([2]; Emraclidine concentration 3330 nM): 0.153 µM | Emax [2, 7]: 72% | EC50 ([2]; Emraclidine concentration […]): 0.111 µM | Emax at […] [2, 13]: 44.1% | α (cooperativity, affinity shift) ([2]; M4 PAM Emraclidine): 1.0 | β (cooperativity, efficacy shift) ([2]; M4 PAM Emraclidine): 4.5 | τ (agonist pharmacology) ([2]; M4 PAM Emraclidine): 0.1 | α (cooperativity, affinity shift) ([2]; M4 PAM MK-4710): 2.2 | β (cooperativity, efficacy shift) ([2]; M4 PAM MK-4710): 1.9 | τ (agonist pharmacology) ([2]; M4 PAM MK-4710): 0.0 | EC50 ([2]; MK-4710 concentration 0 nM): 0.168 µM | Emax ([2]; MK-4710 concentration 0 nM): 53.95% | Emax [2, 8]: 62.5% | Emax [2, 9]: 65.7% | Emax at […] [2, 14]: 68% | Emax [2, 10]: 69.6% | Emax [2, 11]: 82.2% | Emax at […] [2, 15]: 54.9%
Structure (SMILES): CCCCCOc1nsnc1C1=CCCCN1C [KTX-517, 3-(1-methyl-1,4,5,6-tetrahydropyridin-2-yl)-4-(pentyloxy)-1,2,5-thiadiazole]
